Data as given in patent publication US5382568A, “Decapeptide having dopamine stimulating activity” (Arizona Board of Regents, priority 1993, dated 1995).
Residues, ends and D or L forms follow the SMILES beside them. No end group written: not given here.

Key:
serum LH = test: Acute effect of intravenous injection on serum LH (radioimmunoassay); type: in vivo; conditions: rats, intravenous 5.0 micrograms, as LH-RP-2 standard
Method: (§1) For intravenous peptide injections anesthetized rats were fitted surgically with indwelling intra-arterial cannulae 24 hours before the tests. The next day samples of arterial blood were withdrawn from the unanesthetized rats immediately before and after the injection of graded doses of the pineal antigonadotropin. Prolactin and LH were measured in the blood samples by standard double antibody radioimmunoassay with kits provided by the National Hormone and Pituitary Program. The acute effects of 5.0 micrograms of the antigonadotropin are illustrated in the table below:
(§2) Values for LH are expressed as the National Institutes of Health reference standard LH-RP-2. Means±S.E.M. are indicated (n=5)

serum PRL = test: Acute effect of intravenous injection on serum PRL (radioimmunoassay); type: in vivo; conditions: rats, intravenous 5.0 micrograms
Method: as §1, §2

[1] = tested on: rat hypothalamic median eminence strips; test: Dopamine release from hypothalamic median eminence strips in vitro; conditions: for Release of dopamine from rat hypothalamus in vitro (in words): median eminence strips
Method: Rat hypothalamic median eminence strips were rapidly dissected and placed in culture plates containing 100 μl of a Kreb's solution saturated with O2 in accord with the procedure described in Racke, K. and E. Muscholl, J. of Neurochemistry 46:745, 1986. The median eminence strips were maintained at 37° C. under 95% O2 /5%CO2 in a Dubnoff shaking incubator. The media were replaced after a ten minute pre-incubation period. 50 μl samples were taken at 30, 60 and 90 min of incubation for catecholamine determination, with replacement of the removed media. 20 μl of 0.1M perchloric acid were added to each sample before storage at -20°. Media contents of dopamine, norepinephrine and various indoleamine and catecholamine metabolites were determined by HPLC coupled with electrochemical detection in accord with the procedure described in Gregory, V. M., B. Larsen and B. Benson, J. of Chromatography 345:140-144,1985.

[2] = tested on: male and female rats and mice; test: Antigonadotropic effects after chronic daily subcutaneous injection; type: in vivo; conditions: two to four weeks
Method: The neurotropic pineal antigonadotropin of the present invention was assayed in vivo, as is described below. Natural and synthetic analogs were injected into male and female rats and mice in graded doses. Antigonadotropic effects were assessed after a period of chronic daily subcutaneous injection in a variety of solvents/carriers, e.g. physiological saline or corn oil. […] Additionally, blood levels of the gonadal steroids (testosterone in males and estrogens in females) were reduced.

[3] = tested on: anterior pituitary dopamine content; test: Acute effect of a single subcutaneous injection on anterior pituitary dopamine content; type: in vivo; conditions: mice; for Pituitary dopamine content: single subcutaneous injection of 25 nanograms
[4] = tested on: pituitary secretion of LH and PRL; test: Intravenous or intracerebroventricular injections: pituitary secretion of LH and PRL; type: in vivo

| Compound | Serum LH (serum LH; postinjection time 0') [ng/mL] | Serum LH (serum LH; postinjection time 15') [ng/mL] | Serum LH (serum LH; postinjection time 30') [ng/mL] | Serum LH (serum LH; postinjection time 45') [ng/mL] | Serum LH (serum LH; postinjection time 60') [ng/mL] | Serum PRL (serum PRL; postinjection time 0') | Serum PRL (serum PRL; postinjection time 15') | Serum PRL (serum PRL; postinjection time 30') | Serum PRL (serum PRL; postinjection time 45') | Serum PRL (serum PRL; postinjection time 60') | other results |
| --- | --- | --- | --- | --- | --- | --- | --- | --- | --- | --- | --- |
| C[C@@H](O)[C@H](NC(=O)[C@H](CCCCN)NC(=O)[C@@H](NC(=O)[C@@H](NC(=O)[C@@H]1CCCN1C(=O)[C@H](Cc1ccccc1)NC(=O)[C@@H](N)CO)[C@@H](C)O)[C@@H](C)O)C(=O)N[C@@H](Cc1ccc(O)cc1)C(=O)N[C@@H](Cc1ccccc1)C(=O)N1CCC[C@H]1C(=O)O [PAG (1), NH2 -Ser-Phe-Pro-Thr-Thr-Lys-Thr-Tyr-Phe-Pro-COOH] (H-SFPTTKTYFP-OH) | 0.25 | 0.21 | 0.15 | 0.10 | 0.14 | 100 ± 11 % of Initial Control Value | 55 ± 6 % of Initial Control Value | 38 ± 6 % of Initial Control Value | 31 ± 4 % of Initial Control Value | 22 ± 5 % of Initial Control Value |  |
| C[C@@H](O)[C@H](NC(=O)[C@H](CCCCN)NC(=O)[C@@H](NC(=O)[C@@H](NC(=O)[C@@H]1CCCN1C(=O)[C@H](Cc1ccccc1)NC(=O)[C@@H](N)CO)[C@@H](C)O)[C@@H](C)O)C(=O)N[C@@H](Cc1ccc(O)cc1)C(=O)N[C@@H](Cc1ccccc1)C(=O)N1CCC[C@H]1C(=O)O [PAG (2), NH2 -Ser-Phe-Pro-Thr-Thr-Lys-Thr-Tyr-Phe-Pro-COOH] (H-SFPTTKTYFP-OH) | 0.26 | 0.20 | 0.15 | 0.12 | 0.11 | 100 ± 8 % of Initial Control Value | 44 ± 6 % of Initial Control Value | 30 ± 3 % of Initial Control Value | 25 ± 3 % of Initial Control Value | 32 ± 6 % of Initial Control Value | Release of dopamine from rat hypothalamus in vitro (in words) ([1]; listed as synthetic decapeptide): effectively stimulates the release of dopamine into the incubation medium |
| SFPTTKTYFP [PAG, NH2 -Ser-Phe-Pro-Thr-Thr-Lys-Thr-Tyr-Phe-Pro-COOH] |  |  |  |  |  |  |  |  |  |  | Pituitary and blood levels of gonadotropins and prolactin [2]: reductions of pituitary and blood levels of gonadotropins and prolactin; Pituitary, gonadal and accessory reproductive organ weights [2]: significant reductions in pituitary, gonadal and accessory reproductive organ weights; Anterior pituitary dopamine content (in words) ([3]; single injection of 25 nanograms): significant increase in anterior pituitary dopamine content; Pituitary dopamine content ([3]; postinjection time 0'): 0.539 ± 0.046 nanograms per mg of pituitary; Pituitary dopamine content ([3]; postinjection time 15'): 0.795 ± 0.064 nanograms per mg of pituitary; Pituitary dopamine content ([3]; postinjection time 30'): 1.801 ± 0.126 nanograms per mg of pituitary; Release of pituitary LH (pulsatile) ([4]; intracerebroventricular infusions): inhibited release of pituitary LH, reducing both the amplitude and frequency of pulsatile LH release into the blood; Pituitary secretion of LH and PRL ([4]; intravenous or intracerebroventricular injections): demonstrable inhibitory effects on pituitary secretion of LH and PRL; Dopamine released into the incubation medium (accumulative) ([1]; 10^-5 M, incubation time 30'): 35.2 ± 7.6 pg/µL; Dopamine released into the incubation medium (accumulative) ([1]; 10^-5 M, incubation time 60'): 100.2 ± 13 pg/µL; Dopamine released into the incubation medium (accumulative) ([1]; 10^-5 M, incubation time 90'): 182.9 ± 13.7 pg/µL; Dopamine released into the incubation medium (accumulative) ([1]; 10^-7 M, incubation time 30'): 27.2 ± 2.1 pg/µL; Dopamine released into the incubation medium (accumulative) ([1]; 10^-7 M, incubation time 60'): 61.5 ± 5.3 pg/µL; Dopamine released into the incubation medium (accumulative) ([1]; 10^-7 M, incubation time 90'): 109.3 ± 10.8 pg/µL; Release of dopamine from rat hypothalamus in vitro (in words) ([1]; listed as pineal antigonadotropic decapeptide): stimulates the release of dopamine |
